One experiment concerns the target T1, BRM (Homo sapiens, UniProt P51531).
T1 construct: made in house; host or cells: High Five insect cells
Nature of the experiment: ATPase catalytic activity assay (ADP-Glo), BRM. The experiment is classed as biochemical. To be noted: Table 10; for Ratio (BRG1 IC50 (μM) divided by BRM IC50 (μM)): ATPase assay, selectivity BRG1/BRM; for IC50: ATPase catalytic activity assay (ADP-Glo). The gist of the method:
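ADP-Glo luminescence measures ADP produced by BRM ATPase (30 nM) during 1 h at room temperature. ATP is 400 μM, with 20 nM salmon sperm DNA as cofactor. Buffer: 20 mM Tris pH 8, 20 mM MgCl2, 50 mM NaCl, 0.1% Tween-20, 1 mM DTT.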
A general note: ADP-Glo turns the ADP formed in a reaction into a luminescent signal.

Another experiment addresses T2, BRG-1 (Homo sapiens, UniProt P51532).
T2 construct: made in house; host or cells: High Five insect cells
Put plainly: ATPase catalytic activity assay (ADP-Glo), BRG-1. The experiment is classed as biochemical. The following applies: Table 10, read-out: BRG1 IC50. The gist of the method:
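Luminescence read-out: ADP formed by BRG-1 ATPase is converted to ATP and detected by luciferase. Residual ATP is first removed with ADP-Glo Reagent for 40 min at RT; detection reagent is then incubated 60 min at RT before reading.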

Structures are written as SMILES.

A word on the IC50: it is the concentration at which inhibition is half-maximal.

T1 sequence (P51531 whole entry): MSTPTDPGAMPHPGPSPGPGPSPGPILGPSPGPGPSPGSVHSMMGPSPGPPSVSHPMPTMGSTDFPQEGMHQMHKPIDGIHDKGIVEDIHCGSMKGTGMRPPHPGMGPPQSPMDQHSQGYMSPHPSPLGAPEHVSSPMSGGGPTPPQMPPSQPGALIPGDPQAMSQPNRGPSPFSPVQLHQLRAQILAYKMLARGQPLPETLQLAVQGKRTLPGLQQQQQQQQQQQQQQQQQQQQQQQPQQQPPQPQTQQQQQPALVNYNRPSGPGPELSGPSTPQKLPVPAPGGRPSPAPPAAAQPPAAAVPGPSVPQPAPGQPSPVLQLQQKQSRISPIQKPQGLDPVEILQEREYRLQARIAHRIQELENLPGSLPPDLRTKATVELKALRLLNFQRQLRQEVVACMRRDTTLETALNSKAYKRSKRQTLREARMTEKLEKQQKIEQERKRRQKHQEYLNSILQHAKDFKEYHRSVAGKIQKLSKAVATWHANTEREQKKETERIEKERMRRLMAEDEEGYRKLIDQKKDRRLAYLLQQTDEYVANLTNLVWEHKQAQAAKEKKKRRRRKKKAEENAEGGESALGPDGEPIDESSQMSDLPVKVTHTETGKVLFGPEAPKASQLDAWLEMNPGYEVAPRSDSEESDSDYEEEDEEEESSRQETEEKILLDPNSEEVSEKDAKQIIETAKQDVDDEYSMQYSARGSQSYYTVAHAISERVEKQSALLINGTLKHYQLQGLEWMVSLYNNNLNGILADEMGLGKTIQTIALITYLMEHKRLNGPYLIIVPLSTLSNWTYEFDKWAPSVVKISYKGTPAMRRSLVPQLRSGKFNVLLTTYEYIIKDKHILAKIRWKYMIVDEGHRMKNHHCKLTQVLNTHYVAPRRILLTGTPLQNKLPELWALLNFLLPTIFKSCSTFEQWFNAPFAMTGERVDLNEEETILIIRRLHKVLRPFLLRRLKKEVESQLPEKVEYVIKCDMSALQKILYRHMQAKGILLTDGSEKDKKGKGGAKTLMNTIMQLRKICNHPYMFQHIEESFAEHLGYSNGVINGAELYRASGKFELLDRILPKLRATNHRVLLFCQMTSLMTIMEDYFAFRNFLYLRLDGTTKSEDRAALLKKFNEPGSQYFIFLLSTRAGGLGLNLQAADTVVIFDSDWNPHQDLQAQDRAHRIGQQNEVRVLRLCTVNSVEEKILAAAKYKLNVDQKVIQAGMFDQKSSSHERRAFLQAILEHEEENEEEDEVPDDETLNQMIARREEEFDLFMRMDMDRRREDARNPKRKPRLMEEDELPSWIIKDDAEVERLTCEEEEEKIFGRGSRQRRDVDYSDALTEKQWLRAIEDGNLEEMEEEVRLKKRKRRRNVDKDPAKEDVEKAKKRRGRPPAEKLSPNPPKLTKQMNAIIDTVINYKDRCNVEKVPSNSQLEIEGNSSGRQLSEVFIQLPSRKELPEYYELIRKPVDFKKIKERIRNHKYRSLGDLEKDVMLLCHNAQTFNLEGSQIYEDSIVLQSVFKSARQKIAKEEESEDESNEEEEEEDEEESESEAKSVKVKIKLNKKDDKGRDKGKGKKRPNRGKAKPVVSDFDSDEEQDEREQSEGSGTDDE
T2 sequence (P51532 whole entry): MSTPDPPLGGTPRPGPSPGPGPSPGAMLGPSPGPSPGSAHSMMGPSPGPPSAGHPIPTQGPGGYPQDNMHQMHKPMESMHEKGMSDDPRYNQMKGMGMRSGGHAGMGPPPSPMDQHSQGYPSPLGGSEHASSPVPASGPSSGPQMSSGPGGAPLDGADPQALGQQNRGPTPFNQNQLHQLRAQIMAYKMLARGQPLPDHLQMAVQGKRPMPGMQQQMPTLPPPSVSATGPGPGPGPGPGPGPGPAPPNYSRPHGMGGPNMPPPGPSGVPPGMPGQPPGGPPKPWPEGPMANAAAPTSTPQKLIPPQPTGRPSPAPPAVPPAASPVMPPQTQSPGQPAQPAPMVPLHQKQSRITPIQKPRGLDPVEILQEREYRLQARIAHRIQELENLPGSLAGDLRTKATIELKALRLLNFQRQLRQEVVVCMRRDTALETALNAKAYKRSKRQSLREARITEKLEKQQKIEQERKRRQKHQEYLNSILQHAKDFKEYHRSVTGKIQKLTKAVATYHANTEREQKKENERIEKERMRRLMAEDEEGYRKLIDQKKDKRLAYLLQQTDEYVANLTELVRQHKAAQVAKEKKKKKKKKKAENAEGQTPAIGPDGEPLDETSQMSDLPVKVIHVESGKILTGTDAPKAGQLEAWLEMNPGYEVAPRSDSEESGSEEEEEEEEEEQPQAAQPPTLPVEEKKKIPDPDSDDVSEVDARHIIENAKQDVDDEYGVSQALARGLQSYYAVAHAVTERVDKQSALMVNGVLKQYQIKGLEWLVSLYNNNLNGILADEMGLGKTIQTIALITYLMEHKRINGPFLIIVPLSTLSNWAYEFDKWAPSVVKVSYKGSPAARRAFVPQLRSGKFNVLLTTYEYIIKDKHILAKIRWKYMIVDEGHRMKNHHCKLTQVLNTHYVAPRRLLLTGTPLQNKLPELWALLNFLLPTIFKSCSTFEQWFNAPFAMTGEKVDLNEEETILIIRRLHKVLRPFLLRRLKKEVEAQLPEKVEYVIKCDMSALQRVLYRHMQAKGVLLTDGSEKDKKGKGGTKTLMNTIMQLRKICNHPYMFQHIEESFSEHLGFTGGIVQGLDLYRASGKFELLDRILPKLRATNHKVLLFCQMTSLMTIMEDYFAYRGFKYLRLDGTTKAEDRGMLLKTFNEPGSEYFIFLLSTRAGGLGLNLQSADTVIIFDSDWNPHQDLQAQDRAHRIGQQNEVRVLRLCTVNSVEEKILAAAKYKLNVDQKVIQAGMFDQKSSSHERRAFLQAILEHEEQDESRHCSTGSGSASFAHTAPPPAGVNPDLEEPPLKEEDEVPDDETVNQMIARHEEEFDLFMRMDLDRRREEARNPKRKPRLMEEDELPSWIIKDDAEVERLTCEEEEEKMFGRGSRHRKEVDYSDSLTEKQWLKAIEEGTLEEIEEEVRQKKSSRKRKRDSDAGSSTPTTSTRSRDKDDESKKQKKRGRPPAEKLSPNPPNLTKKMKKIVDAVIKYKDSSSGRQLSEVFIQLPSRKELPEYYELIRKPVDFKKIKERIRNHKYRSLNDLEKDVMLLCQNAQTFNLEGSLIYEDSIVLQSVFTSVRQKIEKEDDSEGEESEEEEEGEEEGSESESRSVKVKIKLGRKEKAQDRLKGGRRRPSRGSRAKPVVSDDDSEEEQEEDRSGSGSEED

For `C[C@H]1C[C@@H]1c1cnc2c(c1)OCCN2c1ccc2cnc(CNC(=O)c3cc(F)c4c(c3)S(=O)(=O)[C@@H](F)CCO4)cc2n1` [Compound 223], on BRM, the “Ratio (BRG1 IC50 (μM) divided by BRM IC50 (μM))” value is given as 13.44 and inhibition was half-maximal at 7 nM (IC50). Further, on BRG-1, the IC50 is 102 nM.
As to `COCc1cnc2c(c1)OCCN2c1ccc2cnc(CNC(=O)c3cc(F)c4c(c3)S(=O)(=O)[C@@H](F)CCO4)cc2n1` [Compound 224], on BRM, the “Ratio (BRG1 IC50 (μM) divided by BRM IC50 (μM))” value is 15.91 and the IC50 was found to be 7.1 nM. Further, the IC50 at BRG-1 is 115 nM.
In the same order, the values of `O=C(NCc1cc2nc(-c3cccc(OC(F)F)n3)ccc2cn1)c1cc(Cl)c2c(c1)S(=O)(=O)[C@@H](F)CCO2` [Compound 225] are 49.95, 7.1 nM and 461 nM.
Turning to `[2H]C([2H])([2H])Oc1nscc1-c1ccc2cnc(CNC(=O)c3cc(F)c4c(c3)S(=O)(=O)[C@@H](F)CCO4)cc2n1` [Compound 226], at BRM, the “Ratio (BRG1 IC50 (μM) divided by BRM IC50 (μM))” value came out at 14.90 and the half-inhibitory concentration (IC50) came to 7.1 nM. Also, at BRG-1, the IC50 came to 106 nM.
The corresponding values for `COc1nc(-c2ccc3cnc(CNC(=O)c4cc(F)c5c(c4)S(=O)(=O)[C@@H](F)CCO5)cc3n2)ccc1[C@H](F)CF` [Compound 227] are 9.91, 7.1 nM and 70.5 nM.
In the same order, the values of `O=C(NCc1cc2nc(-c3ccnc(N4CCC4)n3)ccc2cn1)c1cc(F)c2c(c1)S(=O)(=O)[C@@H](F)COC2` [Compound 228] are 14.53, 7.1 nM and 108 nM.
The corresponding values for `O=C(NCc1cc2nc(N3CCCc4cc(OC(F)F)cnc43)ccc2cn1)c1cc(F)c2c(c1)S(=O)(=O)[C@@H](F)CCO2` [Compound 229] are 10.03, 7.2 nM and 72.3 nM.
Take `O=C(NCc1cc2cc(-c3cncc(C4CC4)n3)ccc2cn1)c1cc(F)c2c(c1)S(=O)(=O)[C@@H](F)CCO2` [Compound 230]: the “Ratio (BRG1 IC50 (μM) divided by BRM IC50 (μM))” value at BRM is given as 18.99. The results for the IC50 at BRM and on BRG-1 were 7.2 nM and 153 nM, respectively.
For `C[C@@H]1CN(c2cccc(-c3ccc4nnc(CNC(=O)c5cc(Cl)c6c(c5)S(=O)(=O)[C@@H](F)CCO6)cc4c3)n2)C[C@H](C)O1` [Compound 231], at BRM, the “Ratio (BRG1 IC50 (μM) divided by BRM IC50 (μM))” value worked out at 14.03 and the IC50 was 7.2 nM. Moreover, the IC50 at BRG-1 was determined as 102 nM.
For the molecule `O=C(NCc1cc2cc(-c3cccc(OC(F)F)n3)ccc2cn1)c1cc(Cl)c2c(c1)S(=O)(=O)[C@@H](F)COC2` [Compound 235, (2R)-6-chloro-N-[[6-[6-(difluoromethoxy)-2-pyridyl]-3-isoquinolyl]methyl]-2-fluoro-1,1-dioxo-3,5-dihydro-2H-4,1λ6-benzoxathiepine-8-carboxamide], on BRM, the “Ratio (BRG1 IC50 (μM) divided by BRM IC50 (μM))” value is 23.91 and 7.4 nM corresponded to half-maximal inhibition (IC50). For the same molecule, the 50% inhibitory concentration (IC50) at BRG-1 is 163 nM.
Consider `C[C@@H]1CCN1c1cnc2c(c1)CCCN2c1ccc2cnc(CNC(=O)c3cc(F)c4c(c3)S(=O)(=O)[C@@H](F)CCO4)cc2n1` [Compound 236], for which, on BRM, the “Ratio (BRG1 IC50 (μM) divided by BRM IC50 (μM))” value came to 21.61 and the IC50 was found to be 7.4 nM. Also, at BRG-1, the IC50 turned out to be 160 nM.
The corresponding values for `Cc1cc(C(=O)NCc2cc3nc(N4CCOc5ccc(C(F)F)nc54)ccc3cn2)cc2c1COC[C@H](F)S2(=O)=O` [Compound 237] are 25.36, 7.6 nM and 172 nM.
The corresponding values for `O=C(NCc1cc2nc(-c3cncc(C4CC4)n3)ccc2cn1)c1cc(F)c2c(c1)S(=O)(=O)[C@@H](F)COC2` [Compound 238] are 17.11, 7.6 nM and 132 nM.
For `CC#Cc1cnc2c(c1)OCCN2c1ccc2cnc(CNC(=O)c3cc(F)c4c(c3)S(=O)(=O)[C@@H](F)COC4)cc2n1` [Compound 239], at BRM, the “Ratio (BRG1 IC50 (μM) divided by BRM IC50 (μM))” value amounted to 12.22 and the IC50 came to 7.6 nM. Further, the IC50 at BRG-1 was determined as 93.2 nM.
In the same order, the values of `C[C@H](NC(=O)c1cc(F)c2c(c1)S(=O)(=O)[C@@H](F)CCO2)c1cc2nc(N3CCOc4cc(C5CC5)cnc43)ccc2cn1` [Compound 240] are 19.83, 7.6 nM and 185 nM.
Turning to `O=C(NCc1cc2nc(N3CCOc4cc(N5CC(F)(F)C5)cnc43)ccc2cn1)c1cc(F)c2c(c1)S(=O)(=O)[C@@H](F)CCO2` [Compound 244], at BRM, the “Ratio (BRG1 IC50 (μM) divided by BRM IC50 (μM))” value was found to be 25.74 and the IC50 was found to be 7.8 nM. At BRG-1, the IC50 came to 245 nM.
The corresponding values for `COc1nc(C)ccc1-c1ccc2cnc(CNC(=O)c3cc(F)c4c(c3)S(=O)(=O)[C@@H](F)CCO4)cc2n1` [Compound 245] are 17.91, 7.8 nM and 166 nM.
In the case of `O=C(NCc1cc2nc(N3CCOc4ccc(N5CC(F)C5)nc43)ccc2cn1)c1cc(F)c2c(c1)S(=O)(=O)[C@@H](F)CCO2` [Compound 246], on BRM, the “Ratio (BRG1 IC50 (μM) divided by BRM IC50 (μM))” value stood at 23.74 and half-maximal inhibition (IC50) required 7.8 nM. Moreover, the IC50 on BRG-1 amounted to 217 nM.
Regarding `CCOc1cnc2c(c1)OCCN2c1ccc2cnc(CNC(=O)c3cc(F)c4c(c3)S(=O)(=O)[C@@H](F)CCO4)cc2n1` [Compound 247], at BRM, the “Ratio (BRG1 IC50 (μM) divided by BRM IC50 (μM))” value was determined as 13.39. For the same molecule, the concentration for half-maximal inhibition (IC50) against BRM was determined as 7.8 nM; at BRG-1 it was 98.5 nM.
In the same order, the values of `O=C(NCc1cc2nc(N3CCOc4cc(N5CC(CF)C5)cnc43)ccc2cn1)c1cc(F)c2c(c1)S(=O)(=O)[C@@H](F)CCO2` [Compound 248] are 16.34, 7.8 nM and 128 nM.
For the molecule `O=C(NCc1cc2nc(-c3cccc([C@H]4CC4(F)F)n3)ccc2cn1)c1cc(F)c2c(c1)S(=O)(=O)[C@@H](F)CCO2` [Compound 250], on BRM, the “Ratio (BRG1 IC50 (μM) divided by BRM IC50 (μM))” value is on record as 26.90 and the IC50 stood at 8 nM. The IC50 on BRG-1 was 220 nM.
In the same order, the values of `COc1nc([C@@](C)(F)C(F)F)ccc1-c1ccc2cnc(CNC(=O)c3cc(F)c4c(c3)S(=O)(=O)[C@@H](F)COC4)cc2n1` [Compound 251] are 15.83, 8 nM and 126 nM.
The corresponding values for `O=C(NCc1cc2nc(-c3cccc(C4CC4)n3)ccc2cn1)c1cc(F)c2c(c1)S(=O)(=O)[C@@H](F)CCO2` [Compound 252] are 23.94, 8 nM and 219 nM.
The corresponding values for `O=C(NCc1cc2nc(-c3cccc([C@@H]4CC4(F)F)n3)ccc2cn1)c1cc(F)c2c(c1)S(=O)(=O)[C@@H](F)COC2` [Compound 253] are 22.99, 8 nM and 171 nM.
On to `O=C(NCc1cc2nc(N3CCOc4ccc(N5CC(F)(F)C5)nc43)ccc2cn1)c1cc(F)c2c(c1)S(=O)(=O)[C@@H](F)CCO2` [Compound 254], for which the “Ratio (BRG1 IC50 (μM) divided by BRM IC50 (μM))” value on BRM was determined as 21.58. In addition, the IC50 is 8 nM against BRM and 190 nM at BRG-1.

The values above are taken from patent US12139487B2, “Compounds and uses thereof” (Foghorn Therapeutics Inc., priority 2022, dated 2024).
